Assay results published in paper PMC3838804, “Rapid Identification of Aldose Reductase Inhibitory Compounds from Perilla frutescens” (BioMed Research International, 2013).
Read-outs that look alike come from different tables or passages of the source.

What was measured:
[1] = target: rAR (rat lens aldose reductase) (Rattus norvegicus, UniProt P07943); assay: Assay for rAR inhibitory activity (NADPH absorption decrease at 340 nm, DL-glyceraldehyde substrate); type: biochemical; conditions: for rAR inhibitory activity (in words): isolated compound; for IC50: read-out: IC50 on rAR (isolated compounds)
Experimental: Crude rAR was prepared as follows. Rat lenses were removed from closed male Sprague-Dawley rats weighing 250–280 g and frozen until required. The rat lens homogenate was prepared according to Hayman and Kinoshita with some modifications [20, 21]. […] The partially purified material was separated into 1.0 mL aliquots and stored at 40°C. rAR activity was assayed spectrophotometrically by measuring the decrease in NADPH absorption at 340 nm over a 4 min period with dl-glyceraldehyde substrate. Each 1.0 mL cuvette contained equal units of the enzyme, 0.10 M sodium phosphate buffer (pH 6.2), and 0.3 mM NADPH, with or without 10 mM substrate and an inhibitor [22, 23].

[2] = target: T1, rAR (aldose reductase) (Rattus norvegicus, UniProt P07943); assay: HPLC microfractionation combined with 96-well enzyme assay for rAR inhibition; type: biochemical; conditions: HPLC microfractions of EtOAc soluble fraction (10 μL of 10 mg/mL injected), 96-well plate; hit limit 18.49%
T1 construct: The rat lens homogenate was prepared according to Hayman and Kinoshita with some modifications; from tissue; host or cells: rat lens (male Sprague-Dawley rats)
Experimental: An automated fraction collector (Foxy 200; ISCO, Lincoln, NE, USA) coupled with HPLC equipment (Thermo Electron Spectra HPLC system; Thermo Separation Products, San Jose, CA, USA) was used to separate and collect compounds from extracts directly into 96-well plates (Nunc, Roskilde, Denmark) at 0.4 mL/well (Figure 1). […] The mobile phase, consisting of acetonitrile (ACN) and 0.1% aqueous trifluoroacetic acid (TFA), was used at a flow rate of 0.8 mL/min. The gradient elution program was 7.5–26.5% B (0–20 min), 26.5% B (20–30 min), 26.5–36% B (30–40 min), and 36–100% B (40–45 min). Injection volume was 10 μL at sample concentration 10 mg/mL and detection wavelength 280 nm. After collection, all fractions were evaporated to dryness using an EZ-2 plus evaporator (Gene Vac Ltd., Ipswich, UK).
The effect on rAR inhibitory activity (%) was calculated as the change in absorbance in a sample well versus the change in absorbance in a blank well (average, n = 12). Spontaneous hydrolysis was subtracted from the reaction rate. The hit limit was set at 3 standard deviations (SD) from the minimum AR inhibitory activity. Z′-factor, signal-to-background ratio (S/B), and signal-to-noise ratio(S/N) were used to evaluate the quality of the test: Z′ = 1[(3 × SDs + 3 × SDb)/|X s X b|], S/B = X s/X b, and S/N = (X s X b)/(SDs ^2 + SDb ^2)^1/2; X s and SDs are average and standard deviation of the signal, that is, absorption detected at the 8th measurement point in blank wells (n = 12) after adding the enzyme; X b and SDb are average and SD of the background, that is, absorption at the first measurement point in blank wells (n = 12) after adding the enzyme.
Crude rAR was prepared as follows. Rat lenses were removed from […] male Sprague-Dawley rats weighing 250–280 g and frozen until required. The rat lens homogenate was prepared according to Hayman and Kinoshita with some modifications. A partially purified enzyme with a specific activity of 6.5 U/mg was routinely used to test enzyme inhibition. The partially purified material was separated into 1.0 mL aliquots and stored at […]. rAR activity was assayed spectrophotometrically by measuring the decrease in NADPH absorption at 340 nm over a 4 min period with dl-glyceraldehyde substrate. Each 1.0 mL cuvette contained equal units of the enzyme, 0.10 M sodium phosphate buffer (pH 6.2), and 0.3 mM NADPH, with or without 10 mM substrate and an inhibitor [22, 23].

Structure (SMILES)	rAR inhibitory activity (in words) [1]	rAR inhibitory activity in the corresponding wells [2] [%]	IC50 ([1]; concentration at 50% inhibition, crude rat lens AR, pH 6.2) [µM]	IC50 [1] [µM]
O=C(O)/C=C/c1ccc(O)c(O)c1 [Compound 3, caffeic acid]	weak inhibitory activity	21.31		
O=C(O)c1ccc(O)c(O)c1 [Compound 1, protocatechuic acid]	did not exhibit inhibitory activity	20.46		
O=c1cc(-c2ccc(O)c(O)c2)oc2cc(O)cc(O)c12 [Compound 5, luteolin]		29.46		
O=C(/C=C/c1ccc(O)c(O)c1)O[C@H](Cc1ccc(O)c(O)c1)C(=O)O [Compound 4, rosmarinic acid]		53.31	2.77	
O=C(/C=C/c1ccc(O)c(O)c1)O[C@@H]1C[C@](O)(C(=O)O)C[C@@H](O)[C@H]1O [Compound 2, chlorogenic acid]		34.50		3.16
COC(=O)[C@@H](Cc1ccc(O)c(O)c1)OC(=O)/C=C/c1ccc(O)c(O)c1 [Compound 6, methyl rosmarinic acid]		22.94		4.03
